Laboratory results published in the supplement of paper PMC10307832.

What was measured:
Test in all cases: relative viability (nuclei count vs DMSO), 5 days (fraction); higher = more cells survive
[1] = compound: CCOC(=O)CCNc1cc(N2CCc3ccccc3CC2)nc(-c2ccccn2)n1 [GSK-J4] + CC(C)C[C@H](NC(=O)[C@H](Cc1ccccc1)NC(=O)c1cnccn1)B(O)O [Bortezomib] (partner 0.002 µM)
How it was run: (§1)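 After 5 days of treatment, lung cancer cells in 1536-well plates were fixed and stained in a single step (final 0.05% Triton X-100, 1% formaldehyde, 1 ug/ml Hoechst) and their nuclei counted on 4× images. Treatment had been applied by pin tool the day after seeding as one drug alone or as a fixed anchor-drug dose with five library-drug doses (not always all listed) in √10 steps. Relative viability is the nuclei count of treated wells divided by that of vehicle wells, and values are medians of duplicate plates.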

[2] = compound: CCOC(=O)CCNc1cc(N2CCc3ccccc3CC2)nc(-c2ccccn2)n1 [GSK-J4] + C[C@]1(O)C[C@@H](c2nc(-c3ccc4ccc(-c5ccccc5)nc4c3)c3c(N)nccn32)C1 [Linsitinib] (partner 1 µM)
How it was run: as §1

[3] = compound: CN1CCC(CC1)OC2=CC(=C(C=C2)NC3=NC=C4C(=N3)N(C(=O)N4C)C5CCCC5)OC [AZ3146] + CC(=O)c1c(C)c2cnc(Nc3ccc(N4CCNCC4)cn3)nc2n(C2CCCC2)c1=O [Palbociclib] (partner 0.5 µM)
How it was run: as §1

[4] = compound: CN1CCC(CC1)OC2=CC(=C(C=C2)NC3=NC=C4C(=N3)N(C(=O)N4C)C5CCCC5)OC [AZ3146] + Cc1nc(Nc2ncc(C(=O)Nc3c(C)cccc3Cl)s2)cc(N2CCN(CCO)CC2)n1 [Dasatinib] (partner 0.075 µM)
How it was run: as §1

| Cell Line | relative viability ([1]; first compound 0.5 µM) | relative viability ([1]; first compound 1.581 µM) | relative viability ([1]; first compound 5 µM) | relative viability ([1]; first compound 15.81 µM) | relative viability ([1]; first compound 50 µM) | relative viability ([2]; first compound 0.5 µM) | relative viability ([2]; first compound 1.581 µM) | relative viability ([2]; first compound 5 µM) | relative viability ([2]; first compound 15.81 µM) | relative viability ([2]; first compound 50 µM) | relative viability ([3]; first compound 0.08 µM) | relative viability ([3]; first compound 0.253 µM) | relative viability ([3]; first compound 0.8 µM) | relative viability ([3]; first compound 2.53 µM) | relative viability ([3]; first compound 8 µM) | relative viability ([4]; first compound 0.08 µM) | relative viability ([4]; first compound 0.253 µM) | relative viability ([4]; first compound 0.8 µM) | relative viability ([4]; first compound 2.53 µM) | relative viability ([4]; first compound 8 µM) |
| --- | --- | --- | --- | --- | --- | --- | --- | --- | --- | --- | --- | --- | --- | --- | --- | --- | --- | --- | --- | --- |
| NCI-H1651 | 0.893 | 0.842 | 0.893 | 0.901 | 0.884 | 0.959 | 0.878 | 1.05 | 0.9 | 0.939 | 0.486 | 0.532 | 0.53 | 0.526 | 0.497 | 0.335 | 0.387 | 0.422 | 0.35 | 0.251 |
| NCI-H1666 | 0.776 | – | 0.84 | 0.66 | 0.495 | 0.873 | – | 0.888 | 0.779 | 0.764 | 0.586 | 0.659 | 0.672 | 0.663 | 0.656 | 0.799 | 0.818 | 0.74 | 0.764 | 0.596 |
| NCI-H1734 | 0.795 | 0.878 | 0.738 | 0.725 | 0.783 | 0.884 | 0.72 | 0.818 | 0.757 | 0.816 | 0.308 | 0.376 | 0.387 | 0.3 | 0.317 | 0.436 | 0.461 | 0.493 | 0.484 | 0.394 |
| NCI-H1755 | 0.937 | 0.813 | 0.649 | 0.886 | 0.905 | 0.958 | 0.561 | 0.962 | 0.858 | 0.959 | 0.414 | 0.427 | 0.434 | 0.479 | 0.431 | 0.492 | 0.425 | 0.424 | 0.441 | 0.408 |
| NCI-H1792 | 0.963 | 0.724 | 0.915 | 0.909 | 1.02 | 0.543 | 0.296 | 0.518 | 0.465 | 0.635 | 0.507 | 0.664 | – | 0.679 | 0.669 | 0.737 | 0.855 | – | 0.808 | 0.822 |
| NCI-H1915 | 0.883 | 0.924 | 0.661 | 0.931 | 1.01 | 1.06 | 0.722 | 1.09 | 1.07 | 1.11 | 0.431 | 0.571 | 0.564 | 0.573 | 0.491 | 0.262 | 0.344 | 0.337 | 0.301 | 0.318 |
| NCI-H1975 | 0.383 | 0.354 | – | 0.368 | 0.413 | 0.871 | 0.934 | – | 0.982 | 1.17 | 0.534 | 0.548 | 0.562 | 0.552 | 0.309 | 0.358 | 0.338 | 0.346 | 0.321 | 0.198 |
| NCI-H1993 | 1.18 | 1.24 | 1.19 | 0.878 | 0.812 | 0.694 | 0.752 | 0.814 | 0.779 | 0.785 | 0.721 | 0.71 | 0.579 | 0.639 | 0.762 | 0.537 | 0.563 | 0.677 | 0.643 | 0.475 |
| NCI-H2009 | 0.837 | 0.329 | 0.58 | 0.962 | 0.398 | 1.19 | 0.873 | 0.983 | 1.17 | 0.947 | 0.256 | 0.227 | 0.243 | 0.171 | 0.204 | 0.363 | 0.315 | 0.284 | 0.241 | 0.184 |
| NCI-H2023 | 0.912 | 0.71 | 0.878 | 0.799 | 0.801 | 0.658 | 0.675 | 0.815 | 0.582 | 0.674 | 0.347 | 0.343 | 0.364 | 0.311 | 0.255 | 0.57 | 0.584 | 0.472 | 0.498 | 0.147 |
| NCI-H2085 | 0.949 | 0.927 | 0.857 | 1.09 | 1 | 0.801 | 0.812 | 0.926 | 0.874 | 0.771 | 0.489 | 0.472 | 0.475 | 0.497 | 0.432 | 0.256 | 0.231 | 0.266 | 0.257 | 0.208 |
| NCI-H2087 | 0.789 | 0.763 | – | 0.701 | 0.72 | 0.791 | 0.94 | – | 0.864 | 0.641 | 0.181 | 0.235 | 0.244 | 0.267 | 0.206 | 0.802 | 1.09 | 0.902 | 0.801 | 0.702 |
| NCI-H2126 | 1.02 | 0.617 | 1.09 | 1.05 | 0.998 | 0.735 | 0.705 | 0.732 | 0.677 | 0.725 | 0.336 | 0.33 | 0.375 | 0.333 | 0.339 | 0.575 | 0.629 | 0.56 | 0.628 | 0.523 |
| NCI-H2228 | 0.745 | 0.913 | 0.973 | 0.906 | 0.937 | 0.483 | 0.721 | 0.748 | 0.746 | 1.04 | 0.671 | 0.878 | 0.728 | 0.622 | 0.59 | 0.466 | 0.562 | 0.579 | 0.511 | 0.483 |
| NCI-H2347 | 0.827 | 0.818 | 0.827 | 0.958 | 0.818 | 0.829 | 0.78 | 0.885 | 0.961 | 0.651 | 0.441 | 0.435 | 0.457 | 0.463 | 0.415 | 0.303 | 0.248 | 0.294 | 0.316 | 0.379 |
| NCI-H2405 | 0.992 | 0.724 | – | 0.968 | 1.04 | 1.03 | 0.919 | – | 1.07 | 1.1 | 0.516 | 0.546 | 0.504 | 0.505 | 0.508 | 0.166 | 0.187 | 0.191 | 0.212 | 0.185 |
